As a reminder, the IC50 is the midpoint of a concentration-inhibition curve.

≈ marks a conversion by molar mass, not a printed value. Read-outs that look alike come from different tables or passages of the source. Numbered stars: 1 amine (or outer) side, 2 acyl side, 3 side chain; on linkers, the order of the positions; unused ones are H or OH. Bridge positions count the residues as written; N and C are the ends. Square brackets hold non-standard residues; d marks the D form. Peptide text beside a SMILES is read from it. Adda = CO[C@@H](Cc1ccccc1)[C@@H](C)/C=C(C)/C=C/[C@H](N[*:1])[C@H](C)C(=O)[*:2]; dAsp(3S-Me) = C[C@H](C(=O)[*:3])[C@@H](N[*:1])C(=O)[*:2]; d(γGlu) = O=C(O)[C@@H](CCC(=O)[*:2])N[*:1]; NMeDha = C=C(NC)C(=O)O

Here are results for 3 compounds from PMC7076857 (Toxins, 2020).

Assay [1] concerns the target Protein phosphatase 2A (PP2A) (Homo sapiens, UniProt P67775). Format: biochemical. Particulars: for IC50: read-out: IC50 (PP2A inhibition).
Another assay deals with PP2A. Particulars: cited from earlier work. From the text:
The positive and negative LC–HRMS spectra of 1 were consistent with a molecular formula of C55H77O13N7 which, together with the presence of a prominent [M + Na]^+ adduct ion, a weak neutral loss of m/z 134.0727, and the late retention time, were consistent with a non-Arg-containing MC. […] The negative ion MS/MS spectrum obtained from the FS/DIA (full scan/data indepe ...

Protein phosphatase 2A (PP2A), sequence (P67775 whole entry, looked up): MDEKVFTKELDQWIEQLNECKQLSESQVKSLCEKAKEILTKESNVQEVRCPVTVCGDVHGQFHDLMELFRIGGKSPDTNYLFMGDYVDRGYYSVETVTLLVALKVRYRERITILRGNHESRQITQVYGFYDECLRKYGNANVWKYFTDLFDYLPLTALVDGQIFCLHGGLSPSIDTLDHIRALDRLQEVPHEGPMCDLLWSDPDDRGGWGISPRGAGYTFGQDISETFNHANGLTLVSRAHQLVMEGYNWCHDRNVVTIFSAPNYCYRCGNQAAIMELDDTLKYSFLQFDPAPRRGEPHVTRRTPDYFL

For the compound `C=C1C(=O)N[C@H](CC(C)C)C(=O)N[C@@H](CC(C)C)C(=O)N[C@@H](C(=O)O)[C@H](C)C(=O)N[C@@H](Cc2ccc(O)cc2)C(=O)N[C@@H](/C=C/C(C)=C/[C@H](C)[C@H](Cc2ccccc2)OC)[C@H](C)C(=O)N[C@@H](C(=O)O)CCC(=O)N1C` [Compound 1, [D-Leu^1]MC-LY] (Y[Adda][d(γGlu)][NMeDha][dL]L[dAsp(3S-Me)]-OH; lactam N-7), in assay [1], the “IC50 (PP2A inhibition)” value was found to be 0.80 ng/mL (≈ 0.766 nM), the “Potency in PP2A inhibition assay relative to MC-LR (2)” value is on record as “essentially the same as for MC-LR (2)” and the IC50 worked out at 0.76 nM.

Turning to `C=C1C(=O)N[C@H](C)C(=O)N[C@@H](CC(C)C)C(=O)N[C@@H](C(=O)O)[C@H](C)C(=O)N[C@@H](CCCNC(=N)N)C(=O)N[C@@H](/C=C/C(C)=C/[C@H](C)[C@H](Cc2ccccc2)OC)[C@H](C)C(=O)N[C@@H](C(=O)O)CCC(=O)N1C` [Compound 2, MC-LR] (R[Adda][d(γGlu)][NMeDha][dA]L[dAsp(3S-Me)]-OH; lactam N-7), the IC50 in the assay on PP2A is 0.032 nM. For the same compound, in assay [1], the “IC50 (PP2A inhibition)” value is 0.62 ng/mL (≈ 0.623 nM) and the half-maximal inhibitory concentration (IC50) was determined as 0.62 nM.

For MC-LF [Compound 9], in the assay with PP2A (PP2A assay, MC-LF vs. MC-LR, ref 21 (Ikehara et al.)), the “IC50 relative to MC-LR (2), fold higher” value is 3 fold. Further, the IC50 in the assay with PP2A (ref 21 (Ikehara et al.)) is 0.096 nM.
